The source of these data is patent publication US7045361B2, “Analyte sensing via acridine-based boronate biosensors” (Medtronic MiniMed, Inc., priority 2001, dated 2006).

Series [1] can be described thus: Comparative analysis of the spectral properties of fluorophores. The series is classed as physicochemical. Conditions: for λem(max) / λex / λem(50% max): PBS containing 0.5% DMSO at 21° C; for λem(50% max): bathochromic wavelength at 50% of maximum. From the text: A comparative analysis of the spectral properties of certain fluorophores is shown Table 1. […] This phenomenon is unexpected given the chemical similarity between anthracene and an acridine. As shown in the Table 1, the acridine orange fluorophore emits at even longer wavelengths.

Series [2] in a line: Emission spectra in presence and absence of glucose (FIG. 14A/14B transduction experiment). From the text:
FIG. 14A depicts the results of a transduction experiment with anthracene boronate.
FIG. 14B depicts the results of a transduction experiment with methylacridine boronate (MEACRAB) in the presence of glucose.
A comparison of anthracene boronate and methylacridine boronate (MEACRAB) in the presence and absence of glucose further highlights the unexpected differences between these two fluorescent molecules in terms of their respective fluorescent properties, such as transduction of glucose at longer wavelengths, i.e., glucose sensing capacity as indicated by a change in fluorescence in the presence of glucose at longer wavelengths. These differences are illustrated in FIG. 14A and FIG. 14B, which depicts the emission spectra of anthracene boronate and methylacridine boronate, respectively in the presence and absence of glucose. From inspection of FIG. 14A, it can be observed that at about 440 nm, which is about at a peak of next to maximum intensity, anthracene boronate yields about 25% transduction in the presence of glucose. […] For instance, at about 500 nm, methylacridine boronate yields about 25% transduction in the presence of glucose. Thus, the ability of an acridine boronate, such as methylacridine boronate, to transduce in the presence of glucose at longer wavelengths, as compared with anthracene boronate, is unexpected. […]

The nature of series [3]: Glucose transduction of monotopic acridine-based boronate biosensor molecules by fluorescence spectroscopy. The following applies: for wavelength of maximum intensity (Imax): PBS with DMSO. How it is done: Glucose transduction of particular acridine-based boronate bio sensor molecules was observed using fluorescence spectroscopy. Fluorescence measurements were taken on a Yorbin Fluorolog instrument. […]
Aliquots of glucose were added and responses were measured at 436 nm, or maximum intensity. (See Table 3).
Another transduction experiment was performed with ACRAB at 500 nm, or approximately 25% of the value of maximum intensity. The data taken at 500 nm generally parallel those taken at 436 nm, thus indicating no decrease in performance of the acridine-based boronate biosensor molecule at the longer wavelength. This shift of 83 nm is very significant in that it provides about a 10-fold increase of transmission of light through tissue and skin.
MEACRAB was then diluted 100-fold to 100 nM and transduction at conditions of ambient temperature. The solution contained 0.5% DMSO.

On to `CN(C)c1ccc2cc3ccc(N(C)C)cc3nc2c1` [Acridine Orange, 3,6-bis(dimethylamino)acridine], for which, in series [1], the “emission profile detectable out to” value is 575–600 nm, the maximum emission was 525 nm, the “λem(max)” value is listed as 526 nm and the λex was determined as 493 nm. Moreover, the “λem(50% max)” value in series [1] was determined as 567 nm.

Take `c1ccc2nc3ccccc3cc2c1` [Acridine]: in series [1], the “λem(max)” value is 428 nm, the λex is 360 nm, the “λem(50% max)” value is given as 480 nm and the “emission intensity at about 480 nm relative to intensity of maximum emission wavelength” value is “approximately 50%”.

Consider `c1ccc2cc3ccccc3cc2c1` [Anthracene], for which, in series [1], the “λem(max)” value was 417 nm, the λex worked out at 370 nm, the “λem(50% max)” value worked out at 428 nm and the “emission intensity at about 480 nm relative to intensity of maximum emission wavelength” value was “no detectable emission”.

`Cc1ccc2nc3ccccc3c(CN(CCCCCO)Cc3ccccc3B(O)O)c2c1` [MEACRAB, aminomethylhydroxypentyl-methylacridine boronate]: the “transduction in the presence of glucose” value is listed as “about 50%” in series [2] (at about 440 nm) and “about 25%” in series [2] (at about 500 nm). The Transduction in series [3] (100 nM, 0.5% DMSO, ambient temperature, 509 nm, glucose 87 mg/dL) is 21%; in series [3] (100 nM, 0.5% DMSO, ambient temperature, 509 nm, glucose 173 mg/dL), 29%; in series [3] (100 nM, 0.5% DMSO, ambient temperature, 509 nm, glucose 256 mg/dL) it was 53%; in series [3] (100 nM, 0.5% DMSO, ambient temperature, 509 nm, glucose 341 mg/dL), 77%; in series [3] (100 nM, 0.5% DMSO, ambient temperature, 509 nm, glucose 425 mg/dL), 94%; in series [3] (100 nM, 0.5% DMSO, ambient temperature, 509 nm, glucose 510 mg/dL) it was 109%. For the same compound, the Transduction in series [3] (100 nM, 0.5% DMSO, ambient temperature, 509 nm, glucose 603 mg/dL) came to 118%; in series [3] (100 nM, 0.5% DMSO, ambient temperature, 509 nm, glucose 683 mg/dL), 121%; in series [3] (100 nM, 0.5% DMSO, ambient temperature, 509 nm, glucose 767 mg/dL), 126%; in series [3] (100 nM, 0.5% DMSO, ambient temperature, 509 nm, glucose 834 mg/dL), 134%; in series [3] (100 nM, 0.5% DMSO, ambient temperature, 509 nm, glucose 927 mg/dL), 142%; in series [3] (100 nM, 0.5% DMSO, ambient temperature, 509 nm, glucose 1012 mg/dL), 158%. The Transduction in series [3] (10 μM in PBS, 4% DMSO, 500 nm, glucose 93 mg/dL) stood at 30%; in series [3] (10 μM in PBS, 4% DMSO, 500 nm, glucose 184 mg/dL) it was 60%; in series [3] (10 μM in PBS, 4% DMSO, 500 nm, glucose 275 mg/dL) it was 100%; in series [3] (10 μM in PBS, 4% DMSO, 500 nm, glucose 364 mg/dL), 120%; in series [3] (10 μM in PBS, 4% DMSO, 500 nm, glucose 459 mg/dL), 170%; in series [3] (10 μM in PBS, 4% DMSO, 500 nm, glucose 547 mg/dL), 190%. In series [3] (10 μM in PBS, 4% DMSO, 500 nm, glucose 650 mg/dL), this compound registered a Transduction of 220%. Further, in series [3] (500 nm), the “intensity at 500 nm relative to the value of maximum intensity” value came to 25%. For the same compound, the “wavelength of maximum intensity (Imax)” value in series [3] is reported as 438 nm. The “performance at 100 nM compared with ACRAB, or MEACRAB itself, at 10 μM” value in series [3] (emission wavelength of 500 nm, 0.5% DMSO) was “performed better”.

Regarding “aminomethylhydroxypentyl-acridine boronate [ACRAB]”, the “intensity at 500 nm relative to the value of maximum intensity” value in series [3] (500 nm) is recorded as “approximately 25%”. The Transduction in series [3] (500 nm, glucose 49 mg/dL) came out at 11%; in series [3] (500 nm, glucose 149 mg/dL), 24%; in series [3] (500 nm, glucose 198 mg/dL), 37%; in series [3] (500 nm, glucose 284 mg/dL), 47%; in series [3] (500 nm, glucose 374 mg/dL) it was 56%; in series [3] (500 nm, glucose 441 mg/dL), 62%. Moreover, the Transduction in series [3] (500 nm, glucose 559 mg/dL) was found to be 67%; in series [3] (approx 10 μM, PBS pH 7.4, 0.5% DMSO, 436 nm, glucose 50 mg/dL), 15%; in series [3] (approx 10 μM, PBS pH 7.4, 0.5% DMSO, 436 nm, glucose 150 mg/dL) it was 27%; in series [3] (approx 10 μM, PBS pH 7.4, 0.5% DMSO, 436 nm, glucose 200 mg/dL), 41%; in series [3] (approx 10 μM, PBS pH 7.4, 0.5% DMSO, 436 nm, glucose 300 mg/dL), 48%. Further, the “wavelength of maximum intensity (Imax)” value in series [3] was determined as 436 nm.
